From patent US7192614B2, “Compositions and methods of treatment to alleviate or prevent migrainous headaches and their associated symptoms” (GelStat Corporation, priority 2002, dated 2007)

Experiments:
[1] = test system: migraine headache; test: Individual case reports, acute sublingual treatment of migraine headache (Examples 1-8, 10); assay type: in vivo, human; conditions: single subject
Procedure: A person in otherwise good health had suffered for years with consistently recurring migraine headaches, frequency approximately 1–3 times per month, average duration 4–12 hours, which headaches had proven refractory to standard pharmacological treatment. These migraine headaches were often accompanied by nausea, and infrequently by vomiting. Each occurrence of migraine headache rendered the individual unable to participate in the normal activities of daily living, both socially and professionally. Absenteeism from work and missed social engagements resulted from their frequent need to ensconce themself in a darkened, quiet room where they would ‘wait out’ the headache. The frequency and unpredictability of the migraine headaches caused substantial impairment even between events, this impairment associated with anxiety and the inability to plan any event with confidence. This individual used the present invention in a two (2) part sublingual administration regimen, wherein a first composition is administered sublingually, and allowed to reside under the tongue for a period of about sixty (60) seconds. A second identical composition is administered, following the start of administration of the first composition by approximately five (5) minutes. […]

[2] = test system: migraine; conditions: cited from earlier work
[3] = 5 mg, placebo-controlled 2-attack study
[4] = doses > or = 2.5 mg, Rapoport 1997

SMILES	subject-reported side effects [1]	subject-reported relief of migraine headache and associated symptoms ([1]; two part sublingual regimen)	1 Hour headache response ([2]; Table 2, literature values)	2 Hour complete headache response ([2]; Table 2, literature values)	2 Hour headache response ([2]; Table 2, literature values)	2 hour pain free ([2]; Table 2, literature values)	pain free at 2 hours postdose ([2]; 5 mg)	pain-free response at 1 hour postdose ([2]; 5 mg)	sustained pain-free response at 24 hours ([2]; 5 mg)	headache response at 30 minutes [2, 3]	headache response at 2 hours [2, 3]	2 hour sustained pain free ([2]; Table 2, literature values) [%^9]	headache response rate at 1 hour [2, 4] [%]	headache response rate at 2 hours [2, 4] [%]
CNS(=O)(=O)Cc1ccc2[nH]cc(CCN(C)C)c2c1 [Sumatriptan]	“weakness” and “exhaustion”	moderate success	20%	36%	59%	29%								
CN(C)CCc1c[nH]c2ccc(C[C@H]3COC(=O)N3)cc12 [Zolmitriptan]			44%^1	40–45%^6,7	66%^2,3,4	27–33%^8	31.1 % of attacks	10.6 % of attacks	^9Among attacks treated with ZOMIG-ZMT 5 mg, a sustained pain-free response at 24 hours was achieved in 22.2% of attacks compared to 8.2% for placebo (P < .0001)^1 also unpublished data, see same web address as for #5	16.5 % of attacks	59 % of attacks	31	44 to 51	65 to 67
